A word on the pKi: it is the Ki on a negative log10 scale, so that one unit is a factor of ten.

Here are results for 4 compounds from ChEMBL document CHEMBL1128126, “Inhibitors of human leukocyte elastase. 2.1 synthesis and sar of benzisothiazolinylmethyl aryl ethers” (Bioorg Med Chem Lett, 1995).

Experiment [1] has as its target T1, Neutrophil elastase (Homo sapiens, UniProt P08246).
T1 sequence (P08246 whole entry): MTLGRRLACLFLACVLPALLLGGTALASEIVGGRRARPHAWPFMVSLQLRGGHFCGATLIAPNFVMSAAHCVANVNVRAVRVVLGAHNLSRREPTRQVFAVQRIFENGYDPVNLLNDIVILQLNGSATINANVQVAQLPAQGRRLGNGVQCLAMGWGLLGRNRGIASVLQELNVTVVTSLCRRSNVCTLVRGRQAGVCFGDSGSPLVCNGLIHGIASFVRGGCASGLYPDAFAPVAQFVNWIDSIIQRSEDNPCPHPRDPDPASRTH
Description: Binding affinity for human leukocyte elastase (HLE); Kreact/Kinact.

Experiment [2] addresses T2, Neutrophil elastase (Homo sapiens) (UniProt P08246).
T2 sequence (whole entry): T1 sequence (P08246 whole entry)
Description: Inhibition of human leukocyte elastase (HLE)

pKi: −log10 of the molar value.

For `CC(C)c1cccc2c1C(=O)N(COc1cccc(C(=O)NCCN3CCOCC3)c1)S2(=O)=O`, the pKi in experiment [1] was below 7.00.

In the case of `CO[C@H]1C(=O)N2C(C(=O)N3CCC[C@H]3C(=O)O)=C(COC(C)=O)CS(=O)(=O)[C@H]12`, the negative logarithm of the Ki (pKi) in experiment [1] was 8.66. The compound also had a K inact in experiment [2] of 3700 M⁻¹ s⁻¹. `CC(C)c1cccc2c1C(=O)N(COc1cccc(C(=O)OCCN3CCOCC3)c1)S2(=O)=O` showed a pKi in experiment [1] below 6.00. On to `CC(C)c1cccc2c1C(=O)N(COc1c(Cl)cccc1Cl)S2(=O)=O`, for which the pKi in experiment [1] is below 7.00.
